Measurements as given in PubChem BioAssay (NCI).
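Exposure lasted 48 hours, with cells grown in 96-well plates and compounds tested at five concentrations. TGI denotes the concentration required for complete inhibition of growth.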

Assays:
Assay in all cases: NCI tumour cell line growth inhibition, 48 h
[1] = tested on: UACC-257 melanoma
[2] = tested on: K-562 leukemia
[3] = tested on: RXF 393 renal
[4] = tested on: MDA-N
[5] = tested on: SF-539 CNS
[6] = tested on: M14 melanoma
[7] = tested on: KM12 colon
[8] = tested on: HOP-62 NSCLC
[9] = tested on: OVCAR-3 ovarian
[10] = tested on: MDA-MB-231 breast
[11] = tested on: SK-OV-3 ovarian
[12] = tested on: HL-60(TB) leukemia
[13] = tested on: MALME-3M melanoma
[14] = tested on: UACC-62 melanoma
[15] = tested on: LOX IMVI melanoma
[16] = tested on: HT29 colon
[17] = tested on: HS 578T breast
[18] = tested on: NCI/ADR-RES ovarian
[19] = tested on: MCF7 breast
[20] = tested on: MDA-MB-435
[21] = tested on: NCI-H460 lung
[22] = tested on: OVCAR-4 ovarian
[23] = tested on: HCC-2998 colon
[24] = tested on: U251 CNS
[25] = tested on: A498 renal
[26] = tested on: TK-10 renal
[27] = tested on: EKVX NSCLC
[28] = tested on: DU-145 prostate
[29] = tested on: A549 NSCLC
[30] = tested on: CAKI-1 renal
[31] = tested on: NCI-H522 lung
[32] = tested on: SK-MEL-2 melanoma
[33] = tested on: NCI-H23 lung
[34] = tested on: SN12C renal
[35] = tested on: SF-268 CNS
[36] = tested on: CCRF-CEM leukemia
[37] = tested on: T-47D breast
[38] = tested on: SF-295 CNS
[39] = tested on: IGROV1 ovarian
[40] = tested on: SW-620 colon
[41] = tested on: HCT-116 colon
[42] = tested on: HCT-15 colon
[43] = tested on: SNB-19 CNS
[44] = tested on: NCI-H226 lung
[45] = tested on: SK-MEL-5 melanoma
[46] = tested on: ACHN renal
[47] = tested on: PC-3 prostate
[48] = tested on: HOP-92 NSCLC
[49] = tested on: COLO 205 colon
[50] = tested on: OVCAR-5 ovarian
[51] = tested on: SK-MEL-28 melanoma
[52] = tested on: 786-0 renal
[53] = tested on: SNB-75 CNS
[54] = tested on: MOLT-4 leukemia
[55] = tested on: OVCAR-8 ovarian
[56] = tested on: BT-549 breast
[57] = tested on: UO-31 renal
[58] = tested on: RPMI-8226 leukemia
[59] = tested on: SR leukemia

Compound: N=C1C=C(N)C(=O)c2[nH]c(=O)ccc21
- TGI [1]: 16.6 µM
- TGI [2]: 4.4 µM
- TGI [3]: 3.29 µM
- TGI [4]: 2.28 µM
- TGI [5]: 3.73 µM
- TGI [6]: 28.7 µM
- TGI [7]: 3.21 µM
- TGI [8]: 3.59 µM
- TGI [9]: 2.96 µM
- TGI [10]: 3.46 µM
- TGI [11]: 26.7 µM
- TGI [12]: 4.87 µM
- TGI [13]: 6.19 µM
- TGI [14]: 4.61 µM
- TGI [15]: 3.69 µM
- TGI [16]: 4.5 µM
- TGI [17]: > 100 µM
- TGI [18]: 4.86 µM
- TGI [19]: 1.78 µM
- TGI [20]: 2.3 µM
- TGI [21]: 6.95 µM
- TGI [22]: 2.74 µM
- TGI [23]: 35.8 µM
- TGI [24]: 3.6 µM
- TGI [25]: 6.52 µM
- TGI [26]: 24.9 µM
- TGI [27]: 3.55 µM
- TGI [28]: 21.4 µM
- TGI [29]: 4.99 µM
- TGI [30]: 13 µM
- TGI [31]: 3.54 µM
- TGI [32]: 4.48 µM
- TGI [33]: 4.09 µM
- TGI [34]: 3.16 µM
- TGI [35]: 3.59 µM
- TGI [36]: 5.81 µM
- TGI [37]: 4.88 µM
- TGI [38]: 31.2 µM
- TGI [39]: 3.39 µM
- TGI [40]: 6.7 µM
- TGI [41]: 2.48 µM
- TGI [42]: 4.06 µM
- TGI [43]: 3.86 µM
- TGI [44]: 6.04 µM
- TGI [45]: 3.22 µM
- TGI [46]: 3.1 µM
- TGI [47]: 2.8 µM
- TGI [48]: 3.58 µM
- TGI [49]: 3.14 µM
- TGI [50]: 4.78 µM
- TGI [51]: 36.8 µM
- TGI [52]: 3.48 µM

Compound: COC(=O)C1=C(O)C(C(=O)OC)[C@]2(O)[C@H](C(=O)OC)[C@H]1C[C@@H](c1ccc([N+](=O)[O-])cc1)[C@H]2C(=O)OC (stereo partly drawn)
- TGI [1]: > 100 µM
- TGI [2]: > 100 µM
- TGI [53]: > 100 µM
- TGI [3]: 32.4 µM
- TGI [4]: 35.6 µM
- TGI [5]: > 100 µM
- TGI [6]: 44.5 µM
- TGI [7]: > 100 µM
- TGI [54]: 81.6 µM
- TGI [8]: > 100 µM
- TGI [9]: > 100 µM
- TGI [10]: 83.9 µM
- TGI [11]: > 100 µM
- TGI [12]: 45.8 µM
- TGI [13]: 17.5 µM
- TGI [14]: 29.1 µM
- TGI [15]: 32 µM
- TGI [16]: 55.6 µM
- TGI [18]: 51.8 µM
- TGI [20]: > 100 µM
- TGI [21]: > 100 µM
- TGI [22]: > 100 µM
- TGI [24]: 28.6 µM
- TGI [26]: > 100 µM
- TGI [27]: > 100 µM
- TGI [55]: 41.4 µM
- TGI [28]: > 100 µM
- TGI [29]: 68.1 µM
- TGI [30]: > 100 µM
- TGI [31]: 8.58 µM
- TGI [32]: 46.6 µM
- TGI [33]: 31.4 µM
- TGI [34]: 47.7 µM
- TGI [35]: 51.6 µM
- TGI [36]: 67 µM
- TGI [37]: > 100 µM
- TGI [38]: > 100 µM
- TGI [39]: 30.5 µM
- TGI [40]: 58.4 µM
- TGI [41]: 32.3 µM
- TGI [42]: 38.6 µM
- TGI [43]: 65.5 µM
- TGI [44]: 65.1 µM
- TGI [45]: 30 µM
- TGI [46]: 32.9 µM
- TGI [47]: 51.9 µM
- TGI [49]: 65.2 µM
- TGI [50]: 65.9 µM
- TGI [51]: 50.9 µM
- TGI [52]: 31 µM
- TGI [56]: 39.7 µM

Compound: CC(C)C(=O)Oc1cc2c(=O)oc3c(OC(=O)C(C)C)c(OC(=O)C(C)C)cc4c(=O)oc(c1OC(=O)C(C)C)c2c34
- TGI [57]: > 100 µM
- TGI [1]: > 100 µM
- TGI [2]: > 100 µM
- TGI [53]: > 100 µM
- TGI [3]: > 100 µM
- TGI [4]: > 100 µM
- TGI [5]: > 100 µM
- TGI [6]: > 100 µM
- TGI [7]: > 100 µM
- TGI [54]: > 100 µM
- TGI [8]: > 100 µM
- TGI [9]: > 100 µM
- TGI [10]: > 100 µM
- TGI [11]: > 100 µM
- TGI [13]: > 100 µM
- TGI [14]: > 100 µM
- TGI [15]: > 100 µM
- TGI [16]: > 100 µM
- TGI [17]: > 100 µM
- TGI [18]: > 100 µM
- TGI [19]: > 100 µM
- TGI [20]: > 100 µM
- TGI [21]: > 100 µM
- TGI [22]: > 100 µM
- TGI [23]: > 100 µM
- TGI [24]: > 100 µM
- TGI [25]: > 100 µM
- TGI [26]: > 100 µM
- TGI [27]: > 100 µM
- TGI [55]: > 100 µM
- TGI [28]: > 100 µM
- TGI [29]: > 100 µM
- TGI [30]: > 100 µM
- TGI [31]: > 100 µM
- TGI [33]: > 100 µM
- TGI [34]: > 100 µM
- TGI [35]: > 100 µM
- TGI [36]: > 100 µM
- TGI [38]: > 100 µM
- TGI [39]: > 100 µM
- TGI [40]: > 100 µM
- TGI [41]: > 100 µM
- TGI [42]: > 100 µM
- TGI [58]: > 100 µM
- TGI [43]: > 100 µM
- TGI [44]: > 100 µM
- TGI [45]: > 100 µM
- TGI [46]: > 100 µM
- TGI [47]: > 100 µM
- TGI [48]: > 100 µM
- TGI [49]: > 100 µM
- TGI [50]: > 100 µM
- TGI [51]: > 100 µM
- TGI [52]: > 100 µM
- TGI [56]: > 100 µM

Compound: CCOP(=O)(OCC)/C(C#N)=C/c1cccn1Cc1ccccc1
- TGI [57]: 99.7 µM
- TGI [1]: > 100 µM
- TGI [2]: > 100 µM
- TGI [53]: > 100 µM
- TGI [3]: > 100 µM
- TGI [4]: 92.4 µM
- TGI [5]: 36.1 µM
- TGI [6]: > 100 µM
- TGI [7]: 78.3 µM
- TGI [54]: 75.5 µM
- TGI [8]: > 100 µM
- TGI [9]: > 100 µM
- TGI [10]: 57.5 µM
- TGI [11]: > 100 µM
- TGI [13]: > 100 µM
- TGI [14]: 55 µM
- TGI [15]: 53 µM
- TGI [16]: > 100 µM
- TGI [18]: > 100 µM
- TGI [19]: > 100 µM
- TGI [20]: 42 µM
- TGI [21]: > 100 µM
- TGI [23]: > 100 µM
- TGI [24]: 57.9 µM
- TGI [25]: > 100 µM
- TGI [26]: > 100 µM
- TGI [27]: > 100 µM
- TGI [55]: > 100 µM
- TGI [28]: > 100 µM
- TGI [29]: > 100 µM
- TGI [30]: > 100 µM
- TGI [31]: 86.8 µM
- TGI [32]: 47.8 µM
- TGI [33]: > 100 µM
- TGI [34]: > 100 µM
- TGI [35]: > 100 µM
- TGI [36]: > 100 µM
- TGI [37]: 74 µM
- TGI [38]: 97.6 µM
- TGI [59]: > 100 µM
- TGI [39]: > 100 µM
- TGI [40]: 75.2 µM
- TGI [41]: 39.7 µM
- TGI [42]: > 100 µM
- TGI [43]: > 100 µM
- TGI [44]: 51.8 µM
- TGI [45]: 32.5 µM
- TGI [46]: > 100 µM
- TGI [47]: > 100 µM
- TGI [48]: 36.9 µM
- TGI [49]: 44.5 µM
- TGI [50]: > 100 µM
- TGI [51]: 39.5 µM
- TGI [52]: > 100 µM
- TGI [56]: 74.7 µM
